target: T1, human TLR8 (Homo sapiens, UniProt Q9NR97); test: HEK293-Blue-hTLR-8 cells assay (SEAP reporter, R848 stimulation); format: cell-based; conditions: HEK293-Blue-hTLR8 cells, R848 ligand, 20 hrs incubation
T1 sequence (Q9NR97 27-1041): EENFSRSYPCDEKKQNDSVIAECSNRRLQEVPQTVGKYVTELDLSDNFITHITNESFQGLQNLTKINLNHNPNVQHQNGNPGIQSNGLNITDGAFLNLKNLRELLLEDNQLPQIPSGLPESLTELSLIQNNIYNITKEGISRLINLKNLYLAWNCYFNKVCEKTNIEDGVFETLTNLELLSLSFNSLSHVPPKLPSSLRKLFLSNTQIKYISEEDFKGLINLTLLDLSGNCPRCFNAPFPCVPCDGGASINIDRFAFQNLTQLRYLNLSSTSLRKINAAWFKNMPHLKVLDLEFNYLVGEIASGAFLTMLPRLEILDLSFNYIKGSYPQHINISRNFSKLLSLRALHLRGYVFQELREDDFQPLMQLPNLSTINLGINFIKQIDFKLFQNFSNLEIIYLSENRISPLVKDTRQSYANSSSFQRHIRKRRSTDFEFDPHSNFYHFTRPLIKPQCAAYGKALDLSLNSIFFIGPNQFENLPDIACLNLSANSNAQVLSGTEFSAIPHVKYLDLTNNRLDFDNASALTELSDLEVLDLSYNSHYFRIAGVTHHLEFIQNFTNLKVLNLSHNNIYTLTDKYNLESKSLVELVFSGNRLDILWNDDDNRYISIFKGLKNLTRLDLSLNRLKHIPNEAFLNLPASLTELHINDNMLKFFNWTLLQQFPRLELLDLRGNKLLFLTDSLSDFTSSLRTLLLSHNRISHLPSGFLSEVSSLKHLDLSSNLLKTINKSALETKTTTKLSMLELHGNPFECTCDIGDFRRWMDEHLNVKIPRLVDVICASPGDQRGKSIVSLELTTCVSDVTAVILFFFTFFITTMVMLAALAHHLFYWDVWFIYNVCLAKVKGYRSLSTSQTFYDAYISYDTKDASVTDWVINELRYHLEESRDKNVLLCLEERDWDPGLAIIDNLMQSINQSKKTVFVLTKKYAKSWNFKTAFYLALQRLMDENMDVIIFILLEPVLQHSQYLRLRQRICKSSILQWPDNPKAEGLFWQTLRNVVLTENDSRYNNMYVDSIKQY
In short: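 Antagonist mode: HEK293-Blue-hTLR8 cells with serially diluted compound (1% DMSO final) plus R848 (10 μL of 60 uM stock) for 20 hrs at 37° C. Supernatant NF-κB/AP-1-driven SEAP measured with QUANTI-Blue substrate, 2 hrs at 37° C, absorbance 620–655 nm.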

First: C[C@@H]1CN(c2ccc(C#N)n3nccc23)C[C@H](CN2CCC(N3CCCC3)CC2)O1 [Example 54, 4-[(2R,6S)-2-methyl-6-[(4-pyrrolidin-1-yl-1-piperidyl)methyl]morpholin-4-yl]pyrazolo[1,5-a]pyridine-7-carbonitrile]
Second: C[C@@H]1CN(c2ccc(C#N)n3nccc23)C[C@H](CN2CCC3NCC3C2)O1 (stereo partly drawn) [Example 70, 4-[(2S,6R)-2-(3,7-diazabicyclo[4.2.0]octan-3-ylmethyl)-6-methyl-morpholin-4-yl]pyrazolo[1,5-a]pyridine-7-carbonitrile]
The IC50 of the first is 2.9-fold lower: 42 nM for the first, 120 nM for the second. The first is the more potent here.

First: C[C@@H]1CN(c2ccc(C#N)n3nccc23)C[C@H](CN2CCC23CNC3)O1 [Example 55, 4-[(2S,6R)-2-(1,6-diazaspiro[3.3]heptan-1-ylmethyl)-6-methyl-morpholin-4-yl]pyrazolo[1,5-a]pyridine-7-carbonitrile]
Second: C[C@@H]1CN(c2ccc(C#N)n3nccc23)C[C@H](CN2CC[C@@H]3CNCC32)O1 (stereo partly drawn) [Example 62, 4-[(2R,6S)-2-methyl-6-[[cis-(3aR,6aR)-3,3a,4,5,6,6a-hexahydro-2H-pyrrolo[3,4-b]pyrrol-1-yl]methyl]morpholin-4-yl]pyrazolo[1,5-a]pyridine-7-carbonitrile]
The IC50 of the first is 3.3-fold higher: 870 nM for the first, 260 nM for the second.

Going from `C[C@@H]1CN(c2ccc(C#N)n3nccc23)C[C@H](CN2CC3CCNCC32)O1` (stereo partly drawn) [Example 56, 4-[(2S,6R)-2-(3,8-diazabicyclo[4.2.0]octan-8-ylmethyl)-6-methyl-morpholin-4-yl]pyrazolo[1,5-a]pyridine-7-carbonitrile] to `C[C@@H]1CN(c2ccc(C#N)n3nccc23)C[C@H](CN2CCCC3CNCC32)O1` (stereo partly drawn) [Example 61, 4-[(2S,6R)-2-(2,3,4,4a,5,6,7,7a-octahydropyrrolo[3,4-b]pyridin-1-ylmethyl)-6-methyl-morpholin-4-yl]pyrazolo[1,5-a]pyridine-7-carbonitrile], the IC50 falls from 480 nM to 300 nM (1.6-fold).

`C[C@@H]1CN(c2ccc(C#N)n3nccc23)C[C@H](CN2C3CNCC2COC3)O1` [Example 57, 4-[(2R,6S)-2-methyl-6-(3-oxa-7,9-diazabicyclo[3.3.1]nonan-9-ylmethyl)morpholin-4-yl]pyrazolo[1,5-a]pyridine-7-carbonitrile] and `C[C@@H]1CN(c2ccc(C#N)n3nccc23)C[C@H](CN2C3COCC2CC(N)C3)O1` (stereo partly drawn) [Example 58, 4-[(2S,6R)-2-[(7-amino-3-oxa-9-azabicyclo[3.3.1]nonan-9-yl)methyl]-6-methyl-morpholin-4-yl]pyrazolo[1,5-a]pyridine-7-carbonitrile] are within 1.5-fold of each other in IC50: 62 nM for the first, 58 nM for the second.

Going from `C[C@@H]1CN(c2ccc(C#N)n3nccc23)C[C@H](CN2CCNCC2Cc2ccccc2)O1` (stereo partly drawn) [Example 59, 4-[(2S,6R)-2-[(2-benzylpiperazin-1-yl)methyl]-6-methyl-morpholin-4-yl]pyrazolo[1,5-a]pyridine-7-carbonitrile] to `C[C@@H]1CN(c2ccc(C#N)n3nccc23)C[C@H](CN2CCN(C3CCNCC3)CC2Cc2ccccc2)O1` (stereo partly drawn) [Example 77, 4-[(2S,6R)-2-[[2-benzyl-4-(4-piperidyl)piperazin-1-yl]methyl]-6-methyl-morpholin-4-yl]pyrazolo[1,5-a]pyridine-7-carbonitrile], the IC50 rises from 6 nM to 130 nM (22-fold). The first is the more potent here.

Compared with `C[C@@H]1CN(c2ccc(C#N)n3nccc23)C[C@H](CN2CCC3(CC2)CNCCO3)O1` [Example 60, 4-[(2R,6S)-2-methyl-6-(1-oxa-4,9-diazaspiro[5.5]undecan-9-ylmethyl)morpholin-4-yl]pyrazolo[1,5-a]pyridine-7-carbonitrile], `C[C@@H]1CN(c2ccc(C#N)n3nccc23)C[C@H](CN2CCOC3(CCNCC3)C2)O1` [Example 71, 4-[(2R,6S)-2-methyl-6-(1-oxa-4,9-diazaspiro[5.5]undecan-4-ylmethyl)morpholin-4-yl]pyrazolo[1,5-a]pyridine-7-carbonitrile] is 1.7-fold lower in IC50: 96 nM for the first, 55 nM for the second. The second is the more potent here.

First: C[C@@H]1CN(c2ccc(C#N)n3nccc23)C[C@H](CN2CCC[C@@H]3NCCC32)O1 (stereo partly drawn) [Example 63, 4-[(2R,6S)-2-methyl-6-[[cis-(3aS,7aS)-1,2,3,3a,5,6,7,7a-octahydropyrrolo[3,2-b]pyridin-4-yl]methyl]morpholin-4-yl]pyrazolo[1,5-a]pyridine-7-carbonitrile]
Second: C[C@@H]1CN(c2ccc(C#N)n3nccc23)C[C@H](CN2CCCC3NCCCC32)O1 (stereo partly drawn) [Example 64, 4-[(2S,6R)-2-(3,4,4a,5,6,7,8,8a-octahydro-2H-1,5-naphthyridin-1-ylmethyl)-6-methyl-morpholin-4-yl]pyrazolo[1,5-a]pyridine-7-carbonitrile]
The IC50 of the first is 2.7-fold lower: 44 nM for the first, 120 nM for the second.

Going from `C[C@@H]1CN(c2ccc(C#N)n3nccc23)C[C@H](CN2C3CCCC2CC(N)C3)O1` (stereo partly drawn) [Example 65, Endo-4-[(2S,6R)-2-[(3-amino-9-azabicyclo[3.3.1]nonan-9-yl)methyl]-6-methyl-morpholin-4-yl]pyrazolo[1,5-a]pyridine-7-carbonitrile] to `C[C@@H]1CN(c2ccc(C#N)n3nccc23)C[C@H](CN2CC[C@H](N)[C@H](C)C2)O1` [Example 74, 4-[(2S,6R)-2-[[(3R,4S)-4-amino-3-methyl-1-piperidyl]methyl]-6-methyl-morpholin-4-yl]pyrazolo[1,5-a]pyridine-7-carbonitrile], the IC50 falls from 64 nM to 39 nM (1.6-fold).

Going from `C[C@@H]1CN(c2ccc(C#N)n3nccc23)C[C@H](CN2C3CCCC2CC(N)C3)O1` (stereo partly drawn) [Example 66, Exo-4-[(2S,6R)-2-[(3-amino-9-azabicyclo[3.3.1]nonan-9-yl)methyl]-6-methyl-morpholin-4-yl]pyrazolo[1,5-a]pyridine-7-carbonitrile] to `C[C@@H]1CN(c2ccc(C#N)n3nccc23)C[C@H](CN2CCC3(CN(C)CCO3)C2)O1` (stereo partly drawn) [Example 76, 4-[(2R,6S)-2-methyl-6-[(9-methyl-6-oxa-2,9-diazaspiro[4.5]decan-2-yl)methyl]morpholin-4-yl]pyrazolo[1,5-a]pyridine-7-carbonitrile], the IC50 rises from 140 nM to 340 nM (2.4-fold).

Compared with `C[C@@H]1CN(c2ccc(C#N)n3ncc(F)c23)C[C@H](CN2CCCC3(CCNCC3)C2)O1` [Example 67, 4-[(2S,6R)-2-(2,9-diazaspiro[5.5]undecan-2-ylmethyl)-6-methyl-morpholin-4-yl]-3-fluoro-pyrazolo[1,5-a]pyridine-7-carbonitrile], `C[C@@H]1CN(c2ccc(C#N)n3ncc(F)c23)C[C@H](CN2CCCC3(CCNC3)C2)O1` (stereo partly drawn) [Example 68, 3-fluoro-4-[(2S,6R)-2-(2,7-diazaspiro[4.5]decan-7-ylmethyl)-6-methyl-morpholin-4-yl]pyrazolo[1,5-a]pyridine-7-carbonitrile] is 3.5-fold lower in IC50: 38 nM for the first, 11 nM for the second. The second is the more potent here.

First: C[C@@H]1CN(c2ccc(C#N)n3ncc(F)c23)C[C@H](CN2CCC3(CCCNC3)C2)O1 (stereo partly drawn) [Example 69, 3-fluoro-4-[(2S,6R)-2-(2,9-diazaspiro[4.5]decan-2-ylmethyl)-6-methyl-morpholin-4-yl]pyrazolo[1,5-a]pyridine-7-carbonitrile]
Second: C[C@@H]1CN(c2ccc(C#N)n3nccc23)C[C@H](CN2CCC(N)(c3ccccc3)CC2)O1 [Example 73, 4-[(2S,6R)-2-[(4-amino-4-phenyl-1-piperidyl)methyl]-6-methyl-morpholin-4-yl]pyrazolo[1,5-a]pyridine-7-carbonitrile]
The IC50 of the first is 1.8-fold lower: 26 nM for the first, 47 nM for the second. The first is the more potent here.

From US20220112187A1, “PYRAZOLOPYRIDINE AMINE COMPOUNDS FOR THE TREATMENT OF AUTOIMMUNE DISEASE” (Hoffmann-La Roche Inc., priority 2018, published 2022)
